Assay results taken from BindingDB's records for doi:10.1021/acs.jmedchem.5b01153 (University of Illinois At Chicago, 2016).

Experiments:
[1] = target: T1, 5-hydroxytryptamine receptor 2C (Homo sapiens, UniProt P28335); test: Agonist activity at recombinant human 5HT2C-INI receptor expressed in Flp-In-293 cells assessed as calcium flux by FLIPR assay
T1 sequence (P28335 whole entry): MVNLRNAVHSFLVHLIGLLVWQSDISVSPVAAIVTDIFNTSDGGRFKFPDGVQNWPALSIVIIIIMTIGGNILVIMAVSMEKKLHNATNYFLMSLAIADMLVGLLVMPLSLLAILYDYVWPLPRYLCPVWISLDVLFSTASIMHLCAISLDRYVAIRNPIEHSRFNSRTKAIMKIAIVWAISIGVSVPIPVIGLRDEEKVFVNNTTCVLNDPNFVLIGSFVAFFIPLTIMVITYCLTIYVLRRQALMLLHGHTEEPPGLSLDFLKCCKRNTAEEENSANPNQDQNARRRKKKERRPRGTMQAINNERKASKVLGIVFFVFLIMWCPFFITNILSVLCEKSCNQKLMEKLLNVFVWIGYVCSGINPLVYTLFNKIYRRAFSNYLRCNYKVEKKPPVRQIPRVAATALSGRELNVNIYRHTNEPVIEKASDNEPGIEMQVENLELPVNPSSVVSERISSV

[2] = target: 5-hydroxytryptamine receptor 2B (Homo sapiens, UniProt P41595); test: Agonist activity at recombinant human 5HT2B receptor expressed in Flp-In-293 cells assessed as calcium flux by FLIPR assay
Sequence of 5-hydroxytryptamine receptor 2B (P41595 whole entry): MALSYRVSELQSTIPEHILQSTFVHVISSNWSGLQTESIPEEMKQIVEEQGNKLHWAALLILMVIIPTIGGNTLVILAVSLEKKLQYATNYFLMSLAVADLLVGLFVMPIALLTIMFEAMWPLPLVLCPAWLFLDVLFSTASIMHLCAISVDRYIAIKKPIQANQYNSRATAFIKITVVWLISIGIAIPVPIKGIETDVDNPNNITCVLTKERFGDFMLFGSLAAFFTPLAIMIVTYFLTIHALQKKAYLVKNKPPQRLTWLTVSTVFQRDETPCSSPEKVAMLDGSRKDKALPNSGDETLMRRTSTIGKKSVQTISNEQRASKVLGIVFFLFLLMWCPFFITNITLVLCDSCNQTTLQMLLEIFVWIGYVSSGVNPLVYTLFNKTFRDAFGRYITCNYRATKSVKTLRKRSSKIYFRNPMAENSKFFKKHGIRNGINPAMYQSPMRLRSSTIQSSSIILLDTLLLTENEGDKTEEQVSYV

SMILES	EC50 [1] [nM]	EC50 [2] [nM]
COc1cc(Cl)c(Cl)cc1C1CC1CN (stereo unspecified)	13	
NCC1CC1c1c(OCCF)ccc(F)c1F (stereo unspecified)	509	
C=CCOc1ccc(F)c(F)c1C1CC1CN (stereo unspecified)	151	
COc1ccc(Cl)c(Cl)c1C1CC1CN (stereo unspecified)	1.1	
NCC1CC1c1c(OCCF)ccc(Cl)c1F (stereo unspecified)	386	
C=CCOc1cc(F)c(Cl)cc1C1CC1CN (stereo unspecified)	308	1950
NCC1CC1c1c(OCCF)ccc(Cl)c1Cl (stereo unspecified)	234	
COc1ccc(F)c(F)c1C1CC1CN (stereo unspecified)	15	
NCC1CC1c1cc(Cl)c(F)cc1OCCF (stereo unspecified)	776	
N[C@@H](Cc1c[nH]c2ccc(O)cc12)C(=O)O [OXITRIPTAN]	0.219	
